Results taken from patent US9724352B2, “Pyrrolo[2,1-F[1,2,4]triazine compounds, preparation methods and applications thereof” (Shanghai Institute of Materia Medica, Chinese Academy of …, priority 2012, dated 2017).

Columns and labels:
Assay type in all cases: cell-based
[1] = test system: PI3K signaling in human rhabdomyosarcoma Rh30 cells; assay: PI3K signaling after IGF-1 stimulation (Western blot), Rh30; conditions: compound 1 h, IGF-1 10 minutes
Method: (§1) Rh30 and U87MG cells were seeded in 12-well plates at 2×10^5 cells/well. On the next day, cells were incubated in fresh serum-free culture media subjected to starvation for 24 hours. Cells were then treated with different concentrations of compound I-33 for 1 h. After stimulated with IGF-1 for 10 minutes, the lysed cells were collected, and 4×SDS loading buffer [200 mM Tris.Cl (pH 6.8), 400 mM DTT, 8% SDS (sodium dodecyl sulfate), 0.4% bromophenol blue, 40% glycerol] was added. The cell lysates were boiled for 10 minutes. Aliquot was loaded on polyacrylamide gel and electrophoresis was performed in Tris-glycine electrophoresis buffer (25 mM Tris, 250 mM glycine, 0.1% SDS) at 80-100 V for 2-2.5 hours. The proteins were transformed from gel to nitrocellulose filter membrane by using semidry method. The filter membrane was blocked with blocking solution containing 5% skim milk powder (5% skim milk powder, 20 mM Tris-HCl (pH 7.2-7.4), 150 mM NaCl, 0.1% (v/v) Tween20) in a shaker at room temperature for 2 hours. Then specific primary antibody was added and hybridized at 4° C. overnight. The membrane was washed by washing buffer [20 mM Tris-HCl (pH 7.2-7.4), 150 mM NaCl, 0.1% (v/v) Tween20] for three times at room temperature, 15 minutes each time. […]

[2] = test system: PI3K signaling in human glioma U87MG cells; assay: PI3K signaling after IGF-1 stimulation (Western blot), U87MG; conditions: compound 1 h, IGF-1 10 minutes
Method: as §1

B-BT474 = assay: Proliferation of human cancer cell panel; conditions: read-out: inhibitory activity on proliferation
Source text: (§2) I-30 and I-33 were selected to test their activity on the proliferation of human cancer cells originated from different tissue types.

LG-NCI-H23 = assay: Proliferation of human cancer cell panel; conditions: read-out: inhibitory activity on proliferation
Source text: as §2

LG-NCI-H460 = assay: Proliferation of human cancer cell panel; conditions: read-out: inhibitory activity on proliferation
Source text: as §2

O-SKOV-3 = assay: Proliferation of human cancer cell panel; conditions: read-out: inhibitory activity on proliferation
Source text: as §2

P-PC-3 = assay: Proliferation of human cancer cell panel; conditions: read-out: inhibitory activity on proliferation
Source text: as §2

[3] = test system: colon cancer cells C-HCT-116; assay: Proliferation of human cancer cell panel; conditions: read-out: inhibitory activity on proliferation
Source text: as §2

[4] = test system: colorectal cancer cells C-LOVO; assay: Proliferation of human cancer cell panel; conditions: read-out: inhibitory activity on proliferation
Source text: as §2

[5] = test system: endometrial cancer cells E-RL95-2; assay: Proliferation of human cancer cell panel; conditions: read-out: inhibitory activity on proliferation
Source text: as §2

[6] = test system: gastric cancer cells G-MKN-45; assay: Proliferation of human cancer cell panel; conditions: read-out: inhibitory activity on proliferation
Source text: as §2

[7] = test system: hepatoma cells L-BEL-7402; assay: Proliferation of human cancer cell panel; conditions: read-out: inhibitory activity on proliferation
Source text: as §2

[8] = test system: rhabdomyosarcoma cells S-RH30; assay: Proliferation of human cancer cell panel; conditions: read-out: inhibitory activity on proliferation
Source text: as §2

COLO680N = assay: Proliferation of human esophagus cancer cells; conditions: COLO-680N
Source text: (§3) Compounds BYL719 (shown below), CYH33 (compound I-33) and I-27 were selected to test their activity on the proliferation of 11 species of human esophagus cancer cells.
(§4) The results reported in FIG. 3 were the average GI50 value and SD value of three experiments. The results were arranged according to the GI50 value of CYH33.

Detroit 562 = assay: Proliferation of human esophagus cancer cells
Source text: as §3, §4

KYSE140 = assay: Proliferation of human esophagus cancer cells
Source text: as §3, §4

KYSE150 = assay: Proliferation of human esophagus cancer cells
Source text: as §3, §4

KYSE180 = assay: Proliferation of human esophagus cancer cells
Source text: as §3, §4

KYSE2 = assay: Proliferation of human esophagus cancer cells
Source text: as §3, §4

KYSE30 = assay: Proliferation of human esophagus cancer cells
Source text: as §3, §4

KYSE410 = assay: Proliferation of human esophagus cancer cells
Source text: as §3, §4

KYSE450 = assay: Proliferation of human esophagus cancer cells
Source text: as §3, §4

KYSE510 = assay: Proliferation of human esophagus cancer cells
Source text: as §3, §4

KYSE70 = assay: Proliferation of human esophagus cancer cells
Source text: as §3, §4

Compound: COC(=O)Nc1cc(C(F)(F)F)c(-c2nc(N3CCOCC3)c3cc(CN4CCN(S(C)(=O)=O)CC4)cn3n2)cn1 [Compound I-33, Methyl (5-(6-((4-(methylsulfonyl)piperazin-1-yl)methyl)-4-morpholinopyrrolo[2,1-f][1,2,4]triazin-2-yl)-4-(trifluoromethyl)pyridin-2-yl)carbamate]
- transduction of PI3K signaling [1]: significantly inhibited
- transduction of PI3K signaling [2]: significantly inhibited
- IC50 (B-BT474): 62 nM
- IC50 (LG-NCI-H23): 730 nM
- IC50 (LG-NCI-H460): 1520 nM
- IC50 (O-SKOV-3): 277 nM
- IC50 (P-PC-3): 1580 nM
- IC50 [3]: 10000 nM
- IC50 [4]: 1330 nM
- IC50 [5]: 5300 nM
- IC50 [6]: 3400 nM
- IC50 [7]: 4900 nM
- IC50 [8]: 486 nM
- GI50 (COLO680N; 1st experiment): 743 nM
- GI50 (COLO680N; 2nd experiment): 530 nM
- GI50 (COLO680N; 3rd experiment): 701 nM
- GI50 (COLO680N; mean of three experiments): 658 nM
- GI50 (Detroit 562; Detroit 562, Detroit 562, 1st experiment): 718 nM
- GI50 (Detroit 562; Detroit 562, Detroit 562, 2nd experiment): 707 nM
- GI50 (Detroit 562; Detroit 562, Detroit 562, 3rd experiment): 769 nM
- GI50 (Detroit 562; Detroit 562, Detroit 562, mean of three experiments): 731 nM
- GI50 (KYSE140; KYSE-140, KYSE140, 1st experiment): 484 nM
- GI50 (KYSE140; KYSE-140, KYSE140, 2nd experiment): 804 nM
- GI50 (KYSE140; KYSE-140, KYSE140, 3rd experiment): 492 nM
- GI50 (KYSE140; KYSE-140, KYSE140, mean of three experiments): 593 nM
- GI50 (KYSE150; KYSE-150, KYSE150, 1st experiment): 40 nM
- GI50 (KYSE150; KYSE-150, KYSE150, 2nd experiment): 62 nM
- GI50 (KYSE150; KYSE-150, KYSE150, 3rd experiment): 38 nM
- GI50 (KYSE150; KYSE-150, KYSE150, mean of three experiments): 47 nM
- GI50 (KYSE180; KYSE-180, KYSE180, 1st experiment): 1 nM
- GI50 (KYSE180; KYSE-180, KYSE180, 2nd experiment): 11 nM
- GI50 (KYSE180; KYSE-180, KYSE180, 3rd experiment): 16 nM
- GI50 (KYSE180; KYSE-180, KYSE180, mean of three experiments): 9 nM
- GI50 (KYSE2; KYSE2, 1st experiment): 24 nM
- GI50 (KYSE2; KYSE2, 2nd experiment): 28 nM
- GI50 (KYSE2; KYSE2, 3rd experiment): 97 nM
- GI50 (KYSE2; KYSE2, mean of three experiments): 50 nM
- GI50 (KYSE30; KYSE-30, KYSE30, 1st experiment): 2640 nM
- GI50 (KYSE30; KYSE-30, KYSE30, 2nd experiment): 566 nM
- GI50 (KYSE30; KYSE-30, KYSE30, 3rd experiment): 531 nM
- GI50 (KYSE30; KYSE-30, KYSE30, mean of three experiments): 1250 nM
- GI50 (KYSE410; KYSE-410, KYSE410, 1st experiment): 146 nM
- GI50 (KYSE410; KYSE-410, KYSE410, 2nd experiment): 50 nM
- GI50 (KYSE410; KYSE-410, KYSE410, 3rd experiment): 88 nM
- GI50 (KYSE410; KYSE-410, KYSE410, mean of three experiments): 95 nM
- GI50 (KYSE450; KYSE-450, KYSE450, 1st experiment): 1380 nM
- GI50 (KYSE450; KYSE-450, KYSE450, 2nd experiment): 803 nM
- GI50 (KYSE450; KYSE-450, KYSE450, 3rd experiment): 938 nM
- GI50 (KYSE450; KYSE-450, KYSE450, mean of three experiments): 1040 nM
- GI50 (KYSE510; KYSE-510, KYSE510, 1st experiment): 55 nM
- GI50 (KYSE510; KYSE-510, KYSE510, 2nd experiment): 6 nM
- GI50 (KYSE510; KYSE-510, KYSE510, 3rd experiment): 38 nM
- GI50 (KYSE510; KYSE-510, KYSE510, mean of three experiments): 33 nM
- GI50 (KYSE70; KYSE-70, KYSE70, 1st experiment): 33 nM
- GI50 (KYSE70; KYSE-70, KYSE70, 2nd experiment): 27 nM
- GI50 (KYSE70; KYSE-70, KYSE70, 3rd experiment): 29 nM
- GI50 (KYSE70; KYSE-70, KYSE70, mean of three experiments): 30 nM
